pIC50: −log10 of the molar value. ≈ marks a conversion by molar mass, not a printed value. Read-outs that look alike come from different tables or passages of the source.
Experiments:
GM5657 = assay: MTT-based proliferation assay, GM5657; type: cell-based, human; settings: 48 h
From the text: (§1) 7. Cytotoxicity against Mammalian Cells
(§2) 7.1. Cell viability assays for Moxi, C-Moxi and Ru-s4
(§3) Dulbecco’s Modified Eagle’s Medium (DMEM: [+] 4.5 g/L D-Glucose, L-Glutamine; [-]
(§4) Pyruvate), containing 10% fetal calf serum, 1% penicillin and streptomycin, was used
(§5) as growth medium for HeLa cells. DMEM ([+] 1 g/L D-Glucose; [+] Pyruvate),
(§6) containing 10% fetal calf serum, 1% penicillin and streptomycin, was respectively used
(§7) for GM5657 cells. HeLa and GM5657 cells were detached from the wells with trypsin
(§8) and EDTA, harvested by centrifugation and resuspended in the respective cell culture
(§9) medium. The assays were carried out on 96 well plates with a density of 6000 cells
(§10) per well. After 24 h of incubation at 37°C and 10% CO2, the cells were treated with
(§11) Moxi, C-Moxi and Ru-s4 (constant DMSO concentrations of 0.5%) with a final volume
(§12) of 200 µL per well. For a negative control, one series of cells were only treated with
(§13) 0.5% DMSO, and for a positive control, one series was treated with cisplatin. After 48
(§14) h of incubation, 50 µL PBS containing MTT (2.5 mg/mL) was added. The cells were
(§15) incubated for an additional 2 h. Afterwards, the medium was removed, and 200 µL of
(§16) DMSO were added. The formazan crystal absorption was measured at 550 nm, using
(§17) a reference wavelength of 650 nm. Each assay was carried out in triplicates (three
(§18) independent experiments) for each cell line, Table S3.

HeLa = assay: MTT-based proliferation assay, HeLa; type: cell-based, human; settings: 48 h
From the text: as §1, §2, §3, §4, §5, §6, §7, §8, §9, §10, §11, §12, §13, §14, §15, §16, §17, §18

[1] = solubility as observed in the assays; type: physicochemical
E. coli K12 (BW25113) [2] = assay: prodrug uptake assay (incubation, HPLC of extracellular and wash samples); type: cell-based, Escherichia coli
E. coli K12 (BW25113) [3] = assay: antibacterial activity (dosage-response, 24 h) under iron-limited, micro-aerobic conditions
E. coli K12 (BW25113) [4] = assay: prodrug incubation experiment: C-moxi preloading, washing, catalyst addition (18 h); settings: substrate at upper nontoxic concentration
E. coli K12 (BW25113) [5] = assay: catalyst-prodrug co-addition growth assay (24 h) with siderophore controls; settings: without C‐moxi, MHII + 200 μM bpy, 2 % O2, 24 h
E. coli K12 (BW25113) [6] = assay: effect of catalyst-siderophore conjugates on bacterial growth (dose-response, 24 h); settings: at 10 μM, MHII + 200 μM bpy, 2 % O2, 24 h
[7] = Mean of three runs, tested range 0.05–100 μM
[8] = C-moxi 10 µM, relative to 'no cell' controls
[9] = MHII + 200 μM bpy, 2 % O2, 37 °C, 24 h

SMILES	pIC50 (GM5657; [7])	pIC50 (GM5657; Run 2)	pIC50 (GM5657; Run 3)	pIC50 (HeLa; [7])	pIC50 (HeLa; Run 2)	pIC50 (HeLa; Run 3)	effect on growth relative to the no addition control, substance alone (E. coli K12 (BW25113) [5])	also measured
C=CCOC(=O)c1cn(C2CC2)c2c(OC)c(N3C[C@@H]4CCCN[C@@H]4C3)c(F)cc2c1=O [C‐moxi]	< 4.00	< 4.00	< 4.00	< 4.00	< 4.00	< 4.00	–	pIC50 (GM5657; Homo sapiens, Run 1): < 4.00; pIC50 (HeLa; Homo sapiens, Run 1): < 4.00; solubility ([1]; bacterial growth assay medium, read-out: solubility limit): 500 µM (≈ 221 µg/mL); Remainder (E. coli K12 (BW25113) [2]; C-moxi 10 µM, 100 % minus extracellular and wash): 16.4%; Uptake (E. coli K12 (BW25113) [2]; C-moxi 10 µM, incubation OD600 0.1): 3.31 nmol OD600-1; Extracellular (E. coli K12 (BW25113) [2]; [8]): 82.7%; Wash (E. coli K12 (BW25113) [2]; [8]): 0.9%; internalisation (bacterial uptake) of prodrug (E. coli K12 (BW25113) [2]; C‐moxi added at 10 μM, 15 min at 37 °C, exponential growth, iron-limited, micro-aerobic): 16%; concentrations at which no antibacterial activity is seen (E. coli K12 (BW25113) [3]; [9]): < 10 µM; times less toxic than the parent antibacterial Moxi (E. coli K12 (BW25113) [3]; bacterial assays, E. coli K12): ~300
COc1c(N2C[C@@H]3CCCN[C@@H]3C2)c(F)cc2c(=O)c(C(=O)O)cn(C3CC3)c12 [Moxi, moxifloxacin]	< 4.00	< 4.00	< 4.00	< 4.00	< 4.00	< 4.00	–	pIC50 (GM5657; Homo sapiens, Run 1): < 4.00; pIC50 (HeLa; Homo sapiens, Run 1): < 4.00; difference between C‐moxi and DMSO incubations (in words) (E. coli K12 (BW25113) [4]): no significant difference between incubations; concentrations at which no antibacterial activity is observed (E. coli K12 (BW25113) [3]; [9]): < 10 nM
N.N.[Cl][Pt][Cl] [Cisplatin, cisplatin]	4.73	4.74	4.72	4.77	4.69	4.75	–	pIC50 (GM5657; Run 1): 4.71; pIC50 (HeLa; Run 1): 4.90
O=C(NCCCC[C@H](NC(=O)c1cccc(O)c1O)C(=O)O)c1cccc(O)c1O [azotochelin]	–	–	–	–	–	–	improve growth	–
O=C(O)c1cccc(O)c1O [DHB, 2,3‐dihydroxybenzoic acid]	–	–	–	–	–	–	improve growth	–
C=CCOC(=O)N1CCC[C@H]2CN(c3c(F)cc4c(=O)c(C(=O)O)cn(C5CC5)c4c3OC)C[C@H]21 [N‐moxi]	–	–	–	–	–	–	–	solubility ([1]; 10 % DMSO in aqueous MOPS buffer, HPLC kinetics): poor solubility; concentrations at which no antibacterial activity is seen (E. coli K12 (BW25113) [3]; [9]): < 10 µM
CC(=O)N(O)CCCCCNC(=O)CCC(=O)N(O)CCCCCNC(=O)CCC(=O)N(O)CCCCCN [DFO, desferrioxamine B]	–	–	–	–	–	–	does not improve growth	–
O=C(O)CC(O)(CC(=O)O)C(=O)O [citrate]	–	–	–	–	–	–	improve growth	–
[Cl][Fe]([Cl])[Cl] [FeCl3]	–	–	–	–	–	–	–	change of overall growth compared to no addition (E. coli K12 (BW25113) [6]): tenfold

From article PMC10108276, “Siderophore‐Linked Ruthenium Catalysts for Targeted Allyl Ester Prodrug Activation within Bacterial Cells” (Chemistry (Weinheim an Der Bergstrasse, Germany), 2022)
